Laboratory results: patent publication US5807851A, “2,3-Benzodiazepine Derivatives as non-competitive AMPA” (Egis Gyogyszergyar Rt., priority 1997, dated 1998)

What follows are molecules tested on AMPA receptor (assay: In vitro kainate antagonistic activity: retinal spreading depression on isolated chicken retina). Settings: isolated chicken retina preparations; spreading depression developed with 5 microM of kainate; at least 3 concentrations.
Format: cell-based
Procedure: Antagonizing the effect of kainate (in vitro test)
The in vitro activity of the compounds was determined on isolated chicken retina preparations /M. J. Sheardown, Brain Res., 607, 189 (1993)/. The spreading depression was developped with 5 microM of kainate (the chemical name of kainic acid is 2-carboxy-4-isopropenyl-3-pyrrolidine-acetic acid), and the IC50 values were determined according to Sheardown. The compounds were tested in at least 3 concentrations. Compounds having AMPA antagonistic activity inhibit the response to the kainate having AMPA receptor agonistic activity, and the inhibition obtained depends on the concentration of the compounds.

SMILES | IC50
CC(=O)N1N=C(c2ccc(N)cc2)c2ccc(Cl)cc2CC1C (stereo not shown) [Example 2, 3-Acetyl-1-(4-aminophenyl)-7-chloro-4-methyl-4,5-dihdyro-3H-2,3-benzodiazepine] | 3.2 µM
CC(=O)N1N=C(c2ccc(N)cc2)c2cc(Cl)c(Cl)cc2CC1C (stereo not shown) [Example 10, 3-Acetyl-1-(4-aminophenyl)-7,8-dichloro-4-methyl-4,5-dihydro-3H-2,3-benzodiazepine] | 2.5 µM
CC1=NN=C(c2ccc(N)cc2)c2cc3c(cc2C1)OCO3 [A, reference compound] | 9.5 µM
CC(=O)N1N=C(c2ccc(N)cc2)c2cc(Cl)ccc2CC1C (stereo not shown) [Example 6, 3-Acetyl-1-(4-aminophenyl)-8-chloro-4-methyl-4,5-dihydro-3H-2,3-benzodiazepine] | 8.2 µM
CNC(=O)N1N=C(c2ccc(N)cc2)c2cc(Cl)ccc2CC1C (stereo not shown) [Example 8, 1-(4-Aminophenyl)-8-chloro-4-methyl-3-methylcarbamoyl-4,5-dihydro-3H-2,3-benzodiazepine] | 4.6 µM
CNC(=O)N1N=C(c2ccc(N)cc2)c2cc(Cl)c(Cl)cc2CC1C (stereo not shown) [Example 12, 1-(4-Aminophenyl)-7,8-dichloro-4-methyl-3-methylcarbamoyl-4,5-dihydro-3H-2,3-benzodiazepine] | 1.2 µM
CNC(=O)N1N=C(c2ccc(N)cc2)c2ccc(Cl)cc2CC1C (stereo not shown) [Example 4, 1-(4-Aminophenyl)-7-chloro-4-methyl-3-(methylcarbamoyl)-4,5-dihydro-3H-2,3-benzodiazepine] | 3.6 µM
